For this assay, the system named is colistin (polymyxin E, or PME) resistant bacterium S. maltophilia. Kind of assay: Spot test on lawn of colistin resistant bacterium. It is filed as cell-based. The settings on record: 10 μL spotted, 37° C., 2 days.

The values below come from patent US20240335402A1, “BIODEGRADABLE ANTI-INFECTIVE FORMULATIONS” (New Mexico Tech University Research Park Corporation, priority 2023, published 2024).

Consider `O=C(O)CC[C@@H](C(=O)O)N(CC(=O)O)CC(=O)O` [GLDA, N,N-Dicarboxymethyl glutamic acid], for which the “activity / kill of S. maltophilia lawn” value was “did not work as well as CTAC”.
